The values below come from patent US11066629B2, “Lipid metabolism-promoting composition including isoxanthohumol” (SUNTORY HOLDINGS LIMITED, priority 2016, dated 2021).

For data set [1], the system named is high-fat diet mouse model. To be noted: repeated dose 30 mg/kg/day; cited from earlier work.
For data set [2] the following is noted: heating; isoxanthohumol at 100° C.; cited from earlier work.
Data set [3] in a line: Solubility in water under ice cooling conditions (Experiment A). The data set is classed as physicochemical. To be noted: distilled water, ppm on w/v basis. The source says: The solubility of each of the standard samples of xanthohumol and isoxanthohumol in water (Experiment A) and various solvents (Experiment B) under ice cooling conditions was studied to evaluate the suitability for beverage applications. Xanthohumol and isoxanthohumol were the standard samples obtained in Preparation Example 1 (purity of 95% or higher).
A sample containing distilled water and xanthohumol or isoxanthohumol having a weight corresponding to 0.2% (w/v) of the distilled water was prepared, and each standard sample was allowed to dissolve in distilled water as much as possible by stirring in a vortex mixer for 10 seconds or longer and shaking for about 60 minutes under ice cooling conditions. Further, centrifugation was performed (12,000 rpm, 4° C., for 5 minutes), and the supernatant was collected. This procedure was repeated three times. The finally obtained supernatant was used as a xanthohumol saturated aqueous solution or an isoxanthohumol saturated aqueous solution. The saturated aqueous solution was 100-fold diluted with a 25% aqueous ethanol solution to obtain a sample for analysis. The sample was subjected to quantitative analysis using an LC-MS/MS system (TSQ Quantiva, Thermo Fisher Scientific Inc.) to evaluate the solubility in water. […] Note that ppm is ppm on w/v basis unless otherwise specified. […]

Data set [4] has as its system type II diabetes mouse model. The settings on record: feed containing xanthohumol at 1%; cited from earlier work.

SMILES strings stand for the structures.

With `COc1cc(O)c(CC=C(C)C)c(O)c1C(=O)/C=C/c1ccc(O)cc1` [xanthohumol], the body weight increase result in data set [1] is “suppression of body weight increase”. Moreover, the thermal stability result in data set [2] is listed as “thermally unstable”. In data set [3], the “Solubility in water (ice cooling conditions)” value is “Less than 0.5 ppm”. Also, in data set [4], the body weight gain entry is reported as “tendency of suppression of body weight gain” and the “weight of fat around kidney or the like” value is “decrease”.
